This data set in a line: Penetration test: penetration of active substance through enzymatically isolated apple leaf cuticles in diffusion cells. The following applies: cuticular penetration of imidacloprid, at 20° C., 60%, imidacloprid 0.3 g/l (ai alone) or 0.2 g/l (with surfactant), mean values of 5-8 repetitions. The format is in vitro ADME, apple trees of the Golden Delicious variety.

This note sets out measurements from patent US20110021575A1, “PENETRATION ENHANCERS FOR INSECTICIDAL AGENTS” (priority 2006, published 2011).

Description: In this test, the penetration of active substances through enzymatically isolated cuticles of apple tree leaves was measured.
Leaves which were cut off in the stage of full development of apple trees of the Golden Delicious variety were used. The isolation of the cuticles was effected in a manner such that • first leaf discs marked on the underside with dye and punched out were filled by means of vacuum infiltration with a pectinase solution (0.2 to 2% strength) buffered to a pH between 3 and 4, • sodium azide was then added and • the leaf discs thus treated were allowed to stand until disintegration of the original leaf structure and detachment of the noncellular cuticle.
Thereafter, only those cuticles of the upper sides of the leaves which were free of staltoa and hairs were further used. They were washed several times alternately with water and a buffer solution at pH 7. The clean cuticles obtained were finally drawn onto small Teflon plates and smoothed and dried with a gentle air jet.
In the next step, the cuticle membranes thus obtained were placed in stainless steel diffusion cells (=transport chambers) for membrane transport investigations. For this purpose, the cuticles were placed by means of forceps centrally on the silicone grease-coated edges of the diffusion cells and closed with a likewise greased ring. The arrangement was chosen so that the morphological outside of the cuticles faced outwards, i.e. towards the air, while the original inside faced the interior of the diffusion cell. The diffusion cells were filled with water or with a mixture of water and solvent. […]
After the application of the spray liquors, in each case the water was allowed to evaporate, and in each case the chambers were then turned around and were placed in thermostated trays, air having a defined temperature and atmospheric humidity being blown onto the outside of the cuticle. […] The active substance penetration was measured with radioactively marked active substance.

Take `O=[N+]([O-])NC1=NCCN1Cc1ccc(Cl)nc1` [Imidacloprid (ai), imidacloprid]: the “Penetration after 5 hours” value (after 5 hours) worked out at 0.1%. Besides, for the setting “after 1 day”, the “Penetration after 1 day” value is reported as 0.3%. In addition, the “Penetration after 2 days” value (after 2 days) worked out at 0.5%.
